The source of these data is ChEMBL document CHEMBL3407421, “Design, synthesis, X-ray crystallographic analysis, and biological evaluation of thiazole derivatives as potent and selective inhibitors of human dihydroorotate dehydrogenase” (J Med Chem, 2015).

Data set [1] in a line: Retention time of the compound. The data set is classed as physicochemical.
For data set [2], the target named is Dihydroorotate dehydrogenase (quinone), mitochondrial (Homo sapiens, UniProt Q02127).
Description: Inhibition of human DHODH using dihydroorotate substrate by DCIP assay
The target in data set [3] is T1, Dihydroorotate dehydrogenase (Plasmodium falciparum, UniProt Q54A96).
T1 sequence (Q54A96 whole entry): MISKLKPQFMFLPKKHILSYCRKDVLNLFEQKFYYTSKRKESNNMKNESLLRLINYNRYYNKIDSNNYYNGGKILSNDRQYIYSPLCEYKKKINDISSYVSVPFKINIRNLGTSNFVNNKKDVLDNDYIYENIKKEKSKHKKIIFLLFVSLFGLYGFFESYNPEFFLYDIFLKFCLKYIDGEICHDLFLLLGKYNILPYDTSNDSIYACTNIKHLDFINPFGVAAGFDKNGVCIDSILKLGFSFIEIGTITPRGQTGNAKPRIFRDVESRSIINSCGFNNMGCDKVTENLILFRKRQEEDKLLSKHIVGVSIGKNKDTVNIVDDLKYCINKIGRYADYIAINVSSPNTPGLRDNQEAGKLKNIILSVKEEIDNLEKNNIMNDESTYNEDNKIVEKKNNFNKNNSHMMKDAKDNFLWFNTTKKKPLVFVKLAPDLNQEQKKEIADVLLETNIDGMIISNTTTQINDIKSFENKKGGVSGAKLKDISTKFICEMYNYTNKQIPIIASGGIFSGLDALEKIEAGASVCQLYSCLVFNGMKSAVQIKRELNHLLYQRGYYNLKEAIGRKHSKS
Kind of data set: Inhibition of Plasmodium falciparum DHODH using dihydroorotate substrate by DCIP assay.

The test system of data set [4] is Rattus norvegicus. Nature of the data set: Toxicity in ip dosed bovine type-2 collagen-induced Wistar rat arthritic model assessed as change in body weight administered as qd for 28 days starting day after immunization. Particulars: in vivo, 672 h. The data set is classed as organism-based.

The IC50 is the midpoint of a concentration-inhibition curve.

Where only a bound is given, the exact number is not on record here.

Sequence of Dihydroorotate dehydrogenase (quinone), mitochondrial (Q02127 whole entry): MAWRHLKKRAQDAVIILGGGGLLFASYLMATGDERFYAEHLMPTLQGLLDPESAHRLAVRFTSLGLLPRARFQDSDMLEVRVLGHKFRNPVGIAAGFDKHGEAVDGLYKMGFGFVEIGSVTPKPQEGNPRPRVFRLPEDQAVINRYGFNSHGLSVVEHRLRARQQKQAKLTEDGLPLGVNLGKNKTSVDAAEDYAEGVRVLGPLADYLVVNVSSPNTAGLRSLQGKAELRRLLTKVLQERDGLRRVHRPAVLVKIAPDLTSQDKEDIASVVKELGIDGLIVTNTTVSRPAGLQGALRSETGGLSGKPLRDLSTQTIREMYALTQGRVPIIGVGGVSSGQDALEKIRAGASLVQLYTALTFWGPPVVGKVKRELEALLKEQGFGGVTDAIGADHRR

Take `CC(=O)c1sc(Nc2ccccc2)nc1C`: the Retention_time in data set [1] worked out at 9.94 min. Also, the half-maximal inhibitory concentration (IC50) in data set [2] and in data set [3] was over 10 µM in each case.
The compound `CCOC(=O)c1sc(Nc2ccc(Br)cc2)nc1C` registered a Retention_time in data set [1] of 17.56 min. For the same compound, in data set [3], the IC50 was 2.45 µM.
With `CC(=O)c1sc(Nc2ccc(C)c(Cl)c2)nc1C`, the Retention_time in data set [1] is 14.38 min. The IC50 in data set [2] was found to be 3.94 µM; in data set [3], 0.63 µM.
With `CC(=O)c1sc(Nc2ccc(Br)cc2)nc1C`, the Retention_time in data set [1] is 13.52 min. Besides, the half-inhibitory concentration (IC50) in data set [2] and in data set [3] was over 10 µM throughout.
`CC(=O)c1sc(Nc2ccc(C(C)(C)C)cc2)nc1C` showed a Retention_time in data set [1] of 14.61 min. In addition, the figures for the IC50 in data set [2] and in data set [3] were 3.65 µM and over 10 µM, respectively.
`CC(=O)c1sc(Nc2ccc(C)c(C)c2)nc1C` showed a Retention_time in data set [1] of 12.41 min. Besides, the half-maximal inhibitory concentration (IC50) was found to be 3.85 µM in data set [2] and 1.49 µM in data set [3].
In data set [1], `CC(=O)c1sc(Nc2ccc(C)c(F)c2)nc1C` came in with a Retention_time of 5.82 min. The half-maximal inhibitory concentration (IC50) in data set [2] and in data set [3] was over 10 µM each time.
For `CC(=O)c1sc(Nc2ccc(Cl)c(C(F)(F)F)c2)nc1C`, the Retention_time in data set [1] came to 16.17 min. Further, the IC50 in data set [2] was found to be 2.35 µM; in data set [3], 4.27 µM.
The compound `CC(=O)c1sc(Nc2ccc(Br)c(C(F)(F)F)c2)nc1C` showed a Retention_time in data set [1] of 16.48 min. The figures for the 50% inhibitory concentration (IC50) in data set [2] and in data set [3] were 1.93 µM and over 10 µM, respectively.
For the compound `CC(=O)c1sc(Nc2ccc3ccccc3c2)nc1C`, the Retention_time in data set [1] came to 13.39 min. Moreover, the IC50 in data set [2] worked out at 0.562 µM; in data set [3] it was 0.871 µM.
The compound `CC(=O)c1sc(Nc2ccc3cc4ccccc4cc3c2)nc1C` returned a Retention_time in data set [1] of 16.95 min. For the same compound, the IC50 in data set [2] and in data set [3] was over 10 µM in each case.
`CCOC(=O)c1sc(Nc2ccc(C)c(C)c2)nc1C` returned a Retention_time in data set [1] of 16.56 min. In data set [3], this compound registered a concentration for half-maximal inhibition (IC50) of over 10 µM.
`CCOC(=O)c1sc(Nc2ccc(C)c(F)c2)nc1C` registered a Retention_time in data set [1] of 8.14 min. Moreover, the IC50 in data set [3] was over 10 µM.
`CCOC(=O)c1sc(Nc2ccc(C)c(Cl)c2)nc1C` registered a Retention_time in data set [1] of 18.44 min. Besides, the IC50 in data set [3] was over 10 µM.
Turning to `CCOC(=O)c1sc(Nc2ccc3ccccc3c2)nc1C`, in data set [1], the Retention_time is on record as 9.01 min. In data set [3], this compound displayed an IC50 of over 10 µM.
On the same counts, the results for `CCOC(=O)c1sc(Nc2ccc(C)c(C)c2)nc1N` are 9.57 min and over 10 µM.
`CCOC(=O)c1sc(Nc2ccc(Cl)c(C(F)(F)F)c2)nc1N`: in data set [1], the Retention_time is reported as 7.1 min. For the same compound, the concentration for half-maximal inhibition (IC50) in data set [2] and in data set [3] was over 10 µM throughout.
As for `CCOC(=O)c1sc(Nc2ccc(C)c(C)c2)nc1NC(=O)C1CC1`, in data set [1], the Retention_time is 7.61 min. Besides, the 50% inhibitory concentration (IC50) in data set [2] and in data set [3] was over 10 µM in each case.
Regarding `CCOC(=O)c1sc(Nc2ccc(Cl)c(C(F)(F)F)c2)nc1NC(=O)C1CC1`, in data set [1], the Retention_time turned out to be 7.75 min. In addition, the concentration for half-maximal inhibition (IC50) in data set [3] was over 10 µM.
In data set [1], `CCOC(=O)c1sc(Nc2ccc(C)c(C)c2)nc1NC(=O)c1ccccc1` gave a Retention_time of 7.51 min. In data set [3], this compound registered an IC50 of over 10 µM.
The compound `CCOC(=O)c1sc(Nc2ccc(Cl)c(C(F)(F)F)c2)nc1NC(=O)c1ccccc1` gave a Retention_time in data set [1] of 8.06 min. Also, the concentration for half-maximal inhibition (IC50) in data set [2] and in data set [3] was over 10 µM in each case.
In data set [1], `CCOC(=O)c1sc(Nc2ccc(C)c(C)c2)nc1C1CC1` gave a Retention_time of 10.18 min. Further, the half-maximal inhibitory concentration (IC50) in data set [3] was over 10 µM.
`CCOC(=O)c1sc(Nc2ccc(C)c(F)c2)nc1C1CC1` showed a Retention_time in data set [1] of 9.96 min. The IC50 in data set [3] was over 10 µM.
Compound `CCOC(=O)c1sc(Nc2ccc(C)c(Cl)c2)nc1C1CC1` came in with a Retention_time in data set [1] of 11.22 min. The half-maximal inhibitory concentration (IC50) in data set [3] was over 10 µM.
For `CCOC(=O)c1sc(Nc2ccc(C)c(C)c2)nc1C(C)(C)C`, the Retention_time in data set [1] is recorded as 12.16 min. The half-maximal inhibitory concentration (IC50) in data set [3] was over 10 µM.
In data set [1], `CCOC(=O)c1sc(Nc2ccc(C)c(F)c2)nc1C(C)(C)C` came in with a Retention_time of 11.92 min. The same compound gave a half-inhibitory concentration (IC50) in data set [3] of over 10 µM.
On to `CCOC(=O)c1sc(Nc2ccc(C)c(Cl)c2)nc1C(C)(C)C`, for which, in data set [1], the Retention_time amounted to 13.12 min. In data set [3], this compound registered an IC50 of over 10 µM.
In data set [1], `CCOC(=O)c1sc(Nc2ccc(C)c(C)c2)nc1-c1ccccc1` showed a Retention_time of 9.84 min. Also, in data set [3], the IC50 is over 10 µM.
On to `CCOC(=O)c1sc(Nc2ccc(C)c(F)c2)nc1-c1ccccc1`, for which the Retention_time in data set [1] is on record as 9.56 min. Further, the IC50 in data set [3] is over 10 µM.
For `CCOC(=O)c1sc(Nc2ccc(C)c(Cl)c2)nc1-c1ccccc1`, in that order: 10.7 min and over 10 µM.
Compound `CCOC(=O)c1sc(Nc2ccccc2)nc1-c1ccccc1` yielded a Retention_time in data set [1] of 7.96 min. In addition, the IC50 in data set [3] is over 10 µM.
With `CCOC(=O)c1sc(Nc2ccc(OC)cc2)nc1-c1ccccc1`, the Retention_time in data set [1] was found to be 7.54 min. The compound further had an IC50 in data set [3] of over 10 µM.
As to `CCOC(=O)c1sc(Nc2ccc(Cl)cc2)nc1-c1ccccc1`, the Retention_time in data set [1] was 9.69 min. The compound further yielded an IC50 in data set [3] of over 10 µM.
In data set [1], `CCOC(=O)c1sc(Nc2ccc(C(F)(F)F)cc2)nc1-c1ccccc1` came in with a Retention_time of 9.86 min. This compound also registered an IC50 in data set [3] of over 10 µM.
On to `CCOC(=O)c1sc(Nc2ccc(C(C)(C)C)cc2)nc1-c1ccccc1`, for which the Retention_time in data set [1] is recorded as 21.11 min. In data set [3], this compound displayed an IC50 of over 10 µM.
Consider `CCOC(=O)c1sc(Nc2ccc(Cl)c(C(F)(F)F)c2)nc1-c1ccccc1`, for which the Retention_time in data set [1] worked out at 11.06 min. Moreover, the IC50 in data set [3] was over 10 µM.
In data set [1], `CCOC(=O)c1sc(Nc2ccc(Br)c(C(F)(F)F)c2)nc1-c1ccccc1` returned a Retention_time of 11.33 min. This compound showed an IC50 in data set [3] of over 10 µM.
Compound `CCOC(=O)c1sc(Nc2ccc(Cl)c(Cl)c2)nc1-c1ccccc1` gave a Retention_time in data set [1] of 11.11 min. The compound further registered an IC50 in data set [3] of over 10 µM.
`CCOC(=O)c1sc(Nc2cc(Cl)cc(Cl)c2)nc1-c1ccccc1`: the Retention_time in data set [1] is 11.83 min. The same compound had an IC50 in data set [3] of over 10 µM.
In data set [1], `CCOC(=O)c1sc(Nc2ccc(Br)cc2C)nc1-c1ccccc1` showed a Retention_time of 10.27 min. Moreover, the IC50 in data set [2] and in data set [3] was over 10 µM each time.
In data set [1], `CCOC(=O)c1sc(Nc2ccc3c(c2)CCC3)nc1-c1ccccc1` returned a Retention_time of 10.42 min. Besides, the Activity entry in data set [4] is “Non-toxic”. In addition, the IC50 in data set [3] was over 10 µM.
Turning to `CCOC(=O)c1sc(Nc2ccc3c(c2)OCO3)nc1-c1ccccc1`, the Retention_time in data set [1] came out at 7.28 min. This compound also showed an IC50 in data set [3] of over 10 µM.
On the same counts, the results for `CCOC(=O)c1sc(Nc2ccc3c(c2)CCCC3)nc1-c1ccccc1` are 11.36 min and over 10 µM.
For `CCOC(=O)c1sc(Nc2ccc3ccccc3c2)nc1-c1ccccc1`, the half-inhibitory concentration (IC50) in data set [3] is over 10 µM.
In data set [1], `CCOC(=O)c1sc(Nc2ccc3cc4ccccc4cc3c2)nc1-c1ccccc1` returned a Retention_time of 12.09 min. For the same compound, the half-inhibitory concentration (IC50) in data set [3] is over 10 µM.
In the case of `CCOC(=O)c1sc(Nc2ccc(-c3ccccc3)cc2)nc1-c1ccccc1`, the Retention_time in data set [1] was 10.81 min. Moreover, the IC50 in data set [2] and in data set [3] was over 10 µM in each case.
On to `CCOC(=O)c1sc(Nc2ccc(-c3cccc(OC)c3)cc2)nc1-c1ccccc1`, for which the Retention_time in data set [1] stood at 10.45 min. Moreover, the IC50 in data set [2] and in data set [3] was over 10 µM throughout.
As for `CCOC(=O)c1sc(Nc2ccc(-c3ccccc3)cc2F)nc1-c1ccccc1`, in data set [1], the Retention_time amounted to 11.33 min. The concentration for half-maximal inhibition (IC50) in data set [2] and in data set [3] was over 10 µM throughout.
Compound `CCOC(=O)c1sc(Nc2ccc(-c3cccc(OC)c3)cc2F)nc1-c1ccccc1` had a Retention_time in data set [1] of 10.96 min. Also, the IC50 in data set [2] and in data set [3] was over 10 µM each time.
In the case of `CCOC(=O)c1sc(Nc2c(F)cc(-c3cccc(OC)c3)cc2F)nc1-c1ccccc1`, the Retention_time in data set [1] is 9.51 min. In data set [3], the half-inhibitory concentration (IC50) is over 10 µM.
`CCOC(=O)c1sc(Nc2ccc(Oc3ccccc3)c(Cl)c2)nc1-c1ccccc1` yielded a Retention_time in data set [1] of 11.24 min. Besides, the IC50 in data set [2] and in data set [3] was over 10 µM throughout.
For the compound `CCOC(=O)c1sc(Nc2ccc(OCc3ccccc3)c(Cl)c2)nc1-c1ccccc1`, the Retention_time in data set [1] is recorded as 10.92 min. The IC50 in data set [2] and in data set [3] was over 10 µM throughout.
As for `CCOC(=O)c1sc(Nc2ccc(OCc3c(F)cccc3Cl)c(Cl)c2)nc1-c1ccccc1`, in data set [1], the Retention_time was found to be 9.95 min. The half-inhibitory concentration (IC50) in data set [2] and in data set [3] was over 10 µM in each case.
As to `CN(Cc1cnc2nc(N)nc(N)c2n1)c1ccc(C(=O)N[C@@H](CCC(=O)O)C(=O)O)cc1` [METHOTREXATE], the Activity result in data set [4] was “Non-toxic”.
